Experimental data as given in US11180657B2, “Polysulfonated fluorescence dyes” (ATTO-TEC GmbH, priority 2017, dated 2021).
Marks after values point to notes of the source that are not given here.

Legend:
[1] = Absorption maximum of the dye; assay type: physicochemical; conditions: solvent PBS pH 7.4
Description: (§1) Examples of the compounds according to the invention are listed in Tables 2-6, where the structures as well as the absorption and fluorescence maxima are indicated. The spectra of selected compounds are shown FIGS. 5-18.

[2] = Fluorescence maximum of the dye; assay type: physicochemical; conditions: solvent PBS pH 7.4
Description: as §1

SMILES | λabs [1] | λfl [2]
CC[N+]1=c2cc3c(cc2C(CS(=O)(=O)O)=CC1(C)C)=C(c1c(F)c(F)c(SCC(=O)O)c(F)c1F)c1cc2c(cc1C3(C)C)N(Cc1ccc(S(=O)(=O)O)cc1S(=O)(=O)O)CCC2 [Compound 43] | 684^b nm | 704^b nm
CC1(C)C=C(CS(=O)(=O)O)c2cc3c(cc2N1)C(C)(C)c1cc2c(cc1=C3c1c(F)c(F)c(SCC(=O)O)c(F)c1F)C(CS(=O)(=O)O)=CC(C)(C)[N+]=2Cc1ccc(S(=O)(=O)O)cc1 [Compound 44] | 687^b nm | 707^b nm
CC1(C)c2cc3c(cc2C(c2c(F)c(F)c(SCCS(=O)(=O)O)c(F)c2F)=c2cc4c(cc21)=[N+](CCc1ccc(S(=O)(=O)O)cc1)C(C)(C)C=C4CS(=O)(=O)O)C(CS(=O)(=O)O)=CC(C)(C)N3CCCC(=O)O [Compound 45] | 698^b nm | 719^b nm
CN(Cc1ccc(S(=O)(=O)O)cc1S(=O)(=O)O)c1ccc2c(c1)C(C)(C)C1=C/C(=[N+](/C)Cc3ccc(S(=O)(=O)O)cc3S(=O)(=O)O)C=CC1=C2c1c(F)c(F)c(F)c(F)c1F [Compound 46] | 646^b nm | 666^b nm
CN(Cc1ccc(S(=O)(=O)O)cc1S(=O)(=O)O)c1ccc2c(c1)C(C)(C)C1=C/C(=[N+](/C)Cc3ccc(S(=O)(=O)O)cc3S(=O)(=O)O)C=CC1=C2c1c(F)c(F)c(SCC(=O)O)c(F)c1F [Compound 47] | 645^b nm | 666^b nm
CC1(C)c2cc3c(cc2C(c2c(F)c(F)c(SCCS(=O)(=O)O)c(F)c2F)=c2cc4c(cc21)=[N+](Cc1ccc(S(=O)(=O)O)cc1S(=O)(=O)O)C(C)(C)C=C4CS(=O)(=O)O)CCCN3CCCC(=O)O [Compound 48] | 682^b nm | 705^b nm
CC1(C)c2cc3c(cc2C(c2c(Cl)cccc2Cl)=c2cc4c(cc21)=[N+](Cc1ccc(S(=O)(=O)O)cc1S(=O)(=O)O)C(C)(C)C=C4CS(=O)(=O)O)CCCN3CCCC(=O)O [Compound 52] | 673^b nm | 698^b nm
CC1(C)c2cc3c(cc2C(c2c(Cl)cccc2Cl)=c2cc4c(cc21)=[N+](Cc1ccc(S(=O)(=O)O)cc1S(=O)(=O)O)C(C)(C)CC4CS(=O)(=O)O)CCCN3CCCC(=O)O (stereo not shown) [Compound 53] | 654^b nm | 677^b nm
CN(Cc1ccc(S(=O)(=O)O)cc1S(=O)(=O)O)c1ccc2c(c1)[Si](C)(C)C1=C/C(=[N+](/C)Cc3ccc(S(=O)(=O)O)cc3S(=O)(=O)O)C=CC1=C2c1c(F)c(F)c(SCC(=O)O)c(F)c1F [Compound 54] | 685^b nm | 709^b nm
CCN1c2cc3c(cc2C(CS(=O)(=O)O)=CC1(C)C)C(c1n(C)cc[n+]1CCCCS(=O)(=O)O)=c1cc2c(cc1C3(C)C)=[N+](Cc1ccc(S(=O)(=O)O)cc1S(=O)(=O)O)CCC2 [Compound 55] | 725^b nm | 749^b nm
CCN1c2cc3c(cc2C(CS(=O)(=O)O)=CC1(C)C)C(c1n(C)cc[n+]1CCCC(=O)O)=c1cc2c(cc1C3(C)C)=[N+](Cc1ccc(S(=O)(=O)O)cc1S(=O)(=O)O)CCC2 [Compound 56] | 724^b nm | 746^b nm
Cn1cc[n+](CCCCS(=O)(=O)O)c1C1=c2cc3c(cc2C(C)(C)c2cc4c(cc21)C(CS(=O)(=O)O)=CC(C)(C)N4CCCC(=O)O)=[N+](Cc1ccc(S(=O)(=O)O)cc1S(=O)(=O)O)CCC3 [Compound 57] | 725^b nm | 749^b nm
CC1=CC(C)(C)N(Cc2ccc(S(=O)(=O)O)cc2)c2cc3c(cc21)C(c1n(C)cc[n+]1CCCCS(=O)(=O)O)=c1cc2c(cc1C3(C)C)=[N+](CCCC(=O)O)C(C)(C)C=C2C [Compound 58] | 742^b nm | 775^b nm
Cn1cc[n+](CCCCS(=O)(=O)O)c1C1=c2cc3c(cc2C(C)(C)c2cc4c(cc21)C(CS(=O)(=O)O)=CC(C)(C)N4CCS(=O)(=O)O)=[N+](CCCC(=O)O)C(C)(C)C=C3CS(=O)(=O)O [Compound 59] | 739^b nm | 771^b nm
